Reference: patent US7718768B2, “Biologically active peptide [sequence]” (CMS Peptides Patent Holding Company Limited, priority 2001, dated 2010)
Several values for one entry are separate records, joined by “and”; a condition that tells them apart may be missing. Identical values can stand only once. Marks after values point to notes of the source that are not given here. No end group written: not given here.

What was measured:
NK cell = NK cell activity in mice with ascitic fluid type liver cancer H22; format: in vivo, BALB/c mice
Procedure: Healthy BALB/c mice were randomized into peptide group, rmIFN-γ group, rhIL-2 group, and saline group, 15 mice per group, and prepared into H22 carrying mice model as described in section Method 3. After implantation of the cancer cells, the test substances were administered for 15 days, the mice were killed by cervical dislocation. The spleen was isolated aseptically and manually dispersed in cold D-Hank's solution using an injection needle. The dispersed cell suspension was further sieved through a 100-gauge 150 μm diameter stainless steel sieve. After centrifugation at 200 g for 10 minutes, the supernatant was discarded. The cell pellet was re-suspended in 10 volume of Tris-NH4Cl buffer and then kept standing still for 10 minutes at room temperature. The suspended cells were collected by centrifugation at 150 g for 10 minutes. The cells were washed 2-4 times with cold D-Hank's solution by re-suspending and collecting by centrifugation with condition as described above. The washed cells were then diluted to the desired cell densities by RPMI-1640 culture medium, containing 10% fetal bovine serum.
Mice spleen cells were prepared to 4×10^6/ml as described in section 4.1 above. Target cells YAC-1 were brought to log phase and adjusted to 1×10^5/ml. Using a 96 wells cell culture plate, 100 μl mouse spleen cells and 100 μl culture medium were added to the control well containing only the spleen cells; 100 μl target cells and 100 μl culture medium were added to the control well containing only target cells; 100 μl mouse spleen cells and 100 μl target cells were added to the NK activity assay well. Three parallel sets of the above were prepared per mouse. After that, the 96 wells cell culture plates were incubated for 4 hrs at 37° C., 5% CO2.
Samples were centrifuged at 150 g for 10 minutes to collect the cells. The supernatant was discarded and 50 μl/well MTT of 1 mg/ml was added. The reaction-mixture was then shaken for 2 minutes, and incubated at 37° C., 5% CO2 for 4 hours. The supernatant was discarded after centrifugation at 150 g for 10 minutes. 120 μl 40 mM HCl-2-propanol was added and shaken for 3 minutes. An ELISA reader was used to obtain OD570nm of each well referenced at 630 nm.
The NK cell activity index of each mouse was obtained by first deriving the average OD of the three parallel wells of each combination, then applying this average OD to the following formula: NK cell activity index=[1−(average OD of spleen and target cell well−average OD of spleen cell only well)÷(average OD of target cell only well)]×100% 5. The Effect of Peptides on the Survival of DBA/2 Mice with Transplanted L1210 Leukemia

mononuclear phagocyte [1] = assay: carbon particle clearance test, phagocytotic activity of mononuclear phagocyte; format: in vivo, BALB/c mice; set-up: key: α = (cube root of K)×(body weight ÷ liver+spleen weight); details: IFN-γ and IL-2 groups 3×10^5 IU/kg/day, X ± SD
Procedure, shortened: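 Mice received India ink (0.1 ml/kg i.v., 5-fold diluted) on day 16, one day after last dosing; blood at 1 and 5 min was lysed in 0.1% Na2CO3 and read at OD680. Clearance index K from log OD decline; phagocytic index α = ∛K × body weight/(liver+spleen weight); thymus and spleen indices as % body weight.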

T lymphocyte = tested on: T lymphocyte; set-up: species or system BALB/c mice; details: mouse, in vivo, ip
[2] = tested on: ascitic fluid type liver cancer H22; assay: survival of mice with transplanted ascitic fluid type liver cancer H22; format: in vivo, BALB/c mice; details: for Survival index: versus saline group
Procedure: (§1) Intraperitoneal injection, once per day. […] Treatment of all groups with testing substance lasted for 30 days or until the animal died unless otherwise specified.
Stock H22 cells were incubated in DMEM/F12 medium supplemented with 10% fetal bovine serum, 37° C./5% CO2 for 72 hrs, then washed 3-4 times with Hank's solution at room temperature. Adjust cell concentration to 1-2×10^9 per liter with Hank's solution. 0.2 ml of the cell suspension was implanted to the abdominal cavity of several BALB/c mice for 6-8 days. The mice were killed by cervical vertebra dislocation. Ascitic fluid of the mice was collected asceptically and the cell concentration adjusted to 1×10^6 per ml with Hank's solution. 0.2 ml of the cell suspension was implanted into the abdominal cavity of healthy mice to generate the H22 carrying mouse model for ascitic fluid type liver cancer. Administration of test substance started as described in section Method 1. Survival data of the mice was recorded. If the animal survived longer than the experiment, the survival days was recorded as the duration of the experiment. Mean survival day was obtained by the Kaplan-meier method in the Survival option of the SPSS software. The survival index was calculated according to the following formula: Survival index(mean survival days in treatment group−mean survival days of control group)÷mean survival days of control group×100% 4. The Effect of Peptides on the Cellular Immunity of BALB/c Mice with Transplanted Ascitic Fluid Type Liver Cancer H22 4.1 Preparation of Spleen Cell Suspension^[1,4]

mononuclear phagocyte [3] = assay: phagocytosis index in mice with transplanted S180 sarcoma; format: in vivo, BALB/c mice
Procedure: as §1
Stock S180 sarcoma cells were incubated in DMEM/F12 medium supplemented with 10% fetal bovine serum, 37° C., 5% CO2 for 72 hrs, then washed 3-4 times with Hank's solution at room temperature. Adjust the cell concentration to 1-2×10^9 per liter with Hank's solution. […] The mice were killed by cervical vertebra dislocation. Vigorously growing and non-disrupted tumor masses were harvested and washed clean with sterile saline. The tissue was dispersed in saline to a homogenous cell suspension, in a ratio of 1 g tissue to 4 ml saline. The sarcoma bearing mice model was prepared with an injection of 0.2 ml cell suspension through the armpit. Administration of test substance treatment started as described in section Method 1.
2.1 The effect of peptides on the phagocytotic function of mononuclear phagocyte in mice with S180 sarcoma was analyzed by injecting mice from the tail vein with 0.1 ml/10 g body weight of Indian ink (1:5 dilution with normal saline) on the second day after the last test substance administration. At one minute and five minutes after the injection, 20 μl blood was obtained from the eye canthus with heparinised tubing. The blood was mixed with 2 ml 0.1% w/v Na2CO3 and then OD680nm obtained. The outline clear index K was calculated by the following formula: K=(lgA1−lgA2)÷(t2−t1)
After the phagocytosis index study, the mice were killed by cervical vertebra dislocation. The liver, spleen, and cancer tissue were dissected, blotted dry, and weighed.
1. The Phagocytosis Index α was Calculated as Below: α=(^3√K)×(W÷WLS)

[4] = peptide 5 μg/kg/day i.p. 15 days
[5] = peptide 500 μg/kg/day i.p. 15 days
[6] = peptide 0.5 μg/kg/day i.p. 15 days
[7] = peptide 50 μg/kg/day i.p. 15 days
[8] = 3 × 10^5 IU/kg i.p. once per day

How did the NK activity index (NK cell; 500 μg/kg i.p. once per day) turn out when FNFVPP [CMS003] was run?
The NK activity index was 37.9 ± 14.5*^^$ %.

What about the phagocytotic index (mononuclear phagocyte [1]; [4]) of the same molecule?
The phagocytotic index was 6.9 ± 0.9*^.

And the phagocytotic index (mononuclear phagocyte [1]; [5])?
The phagocytotic index was 6.6 ± 0.7.

What about the “activity of T lymphocyte in secreting IFN” value (shortened to “activity of T lymphocyte”) (T lymphocyte) of the same molecule?
Its value is 106 ± 16 IU.

How did the phagocytotic index (mononuclear phagocyte [1]; [4]) turn out when IGMESAGIHETTY [CMS016] was run?
The phagocytotic index was 6.9 ± 0.8*^.

And the “activity of T lymphocyte” value (T lymphocyte)?
Its value is 162 ± 19*^@^ IU.

Which phagocytotic index (mononuclear phagocyte [1]; [4]) does the source give for KAVGHLDDLPGAL [CMS008] here?
The phagocytotic index was 6.4 ± 0.5.

And the phagocytotic index (mononuclear phagocyte [1]; [5])?
The phagocytotic index was 6.5 ± 1.2.

What about the Survival days ([2]; 5 μg/kg i.p. once per day) of the same molecule?
The Survival days was 50.7 ± 20.9*^& days.

What about the Survival index ([2]; 5 μg/kg i.p. once per day) of the same molecule?
The Survival index was 67.8%.

Which results are given for LRVAPEEHPTL [CMS009]?
phagocytotic index (mononuclear phagocyte [1]; [4]): 6.9 ± 0.9*^; activity of T lymphocyte in secreting IFN (T lymphocyte): 121 ± 15*^ IU

What does the source list for PTTKTYFPHF [CMS001]?
Phagocytosis index (mononuclear phagocyte [3]; 5 μg/kg i.p. once per day): 6.67 ± 0.43*^; Phagocytosis index (mononuclear phagocyte [3]; 50 μg/kg i.p. once per day): 6.24 ± 0.33*^

With “Phe Glu Glu Glu (FEEE; listed as Sus scrofa) [CMS032]” as the molecule, how does the NK activity index (NK cell; 5 μg/kg i.p. once per day) read?
The NK activity index was 52.6 ± 12.5*^^$& %.

What about the NK activity index (NK cell; 50 μg/kg i.p. once per day) of the same molecule?
Its NK activity index is 41.0 ± 18.7*^^$& %.

And the Survival days ([2]; 0.5 μg/kg i.p. once per day)?
Its Survival days is 42.8 ± 12.2*^^&$ days.

And the Survival index ([2]; 0.5 μg/kg i.p. once per day)?
Its Survival index is 63.3%.

For “Phe Val Asn Asp (FVND; listed as Sus scrofa) [CMS035]”, which phagocytotic index (mononuclear phagocyte [1]; [4]) is on record?
The phagocytotic index was 6.9 ± 0.9*^.

“Pro Glu Asn Phe (PENF; listed as Sus scrofa) [CMS034]” was tested. Which NK activity index (NK cell; 50 μg/kg i.p. once per day) did it give?
The NK activity index was 57.3 ± 17.9*^^$& %.

And the Phagocytosis index (mononuclear phagocyte [3]; 0.5 μg/kg i.p. once per day)?
Its Phagocytosis index is 6.35 ± 1.02.

What about the Phagocytosis index (mononuclear phagocyte [3]; 5 μg/kg i.p. once per day) of the same molecule?
The Phagocytosis index was 6.20 ± 0.44*^.

Which phagocytotic index (mononuclear phagocyte [1]; [4]) does the source give for RVAPEEHPTL [CMS011] here?
The phagocytotic index was 6.4 ± 1.1.

And the “activity of T lymphocyte” value (T lymphocyte)?
The value was 89 ± 18 IU.

And the Survival days ([2]; 5 μg/kg i.p. once per day)?
Its Survival days is 36.4 ± 22.2*^& days.

What about the Survival index ([2]; 5 μg/kg i.p. once per day) of the same molecule?
The Survival index was 60.2%.

Which results are given for “Tyr Ser Leu (YSL; listed as Sus scrofa) [CMS024]”?
NK activity index (NK cell; 0.5 μg/kg i.p. once per day): 39.3 ± 18.7*^$ %; NK activity index (NK cell; 5 μg/kg i.p. once per day): 34.9 ± 12.1*^^$ %; NK activity index (NK cell; 50 μg/kg i.p. once per day): 43.6 ± 13.9*^^$& %; phagocytotic index (mononuclear phagocyte [1]; [6]): 6.7 ± 0.5*^; phagocytotic index (mononuclear phagocyte [1]; [7]): 6.6 ± 0.7; phagocytotic index (mononuclear phagocyte [1]; [5]): 6.4 ± 1.0; Survival days ([2]; 0.5 μg/kg i.p. once per day): 46.4 ± 14.8*^^&$ days; Survival index ([2]; 0.5 μg/kg i.p. once per day): 76.9%; postmortem examination of the long-surviving mice ([2]; 0.5 μg/kg/day): did not show sign of tumor establishment; share of mice surviving longer than 90 days ([2]; 0.5 μg/kg/day, n=6, two months after the experiment ended): more than 30%; Survival days ([2]; 5 μg/kg i.p. once per day): 40.6 ± 14.6*^&$ days; Survival index ([2]; 5 μg/kg i.p. once per day): 54.8%; Survival days ([2]; 50 μg/kg i.p. once per day): 36.3 ± 12.7*^&$ days; Survival index ([2]; 50 μg/kg i.p. once per day): 38.4%

Which phagocytotic index (mononuclear phagocyte [1]; [4]) does the source give for VAPEEHPTLLTEAPLNPK [CMS010] here?
Its phagocytotic index is 7.1 ± 0.7*^.

What about the “activity of T lymphocyte” value (T lymphocyte) of the same molecule?
The value was 167 ± 13*^@^ IU and 142 ± 18*^@^ IU.

Which phagocytotic index (mononuclear phagocyte [1]; [4]) does the source give for VGMGQKDSY [CMS019] here?
The phagocytotic index was 6.8 ± 0.6*^.

And the phagocytotic index (mononuclear phagocyte [1]; [7])?
Its phagocytotic index is 6.7 ± 0.9*^.

B1: IFN-γ: recombinant mouse interferon-γ, Beijing Biotech Inc.; positive control immunostimulant (protein, UniProt P01580 23-155, looked up)
Interferon gamma: HGTVIESLESLNNYFNSSGIDVEEKSLFLDIWRNWQKDGDMKILQSQIISFYLRLFEVLKDNQAISNNISVIESHLITTFFSNSKAKKDAFMSIAKFEVNNPQVQRQAFNELIRVVHQLLPESSLRKRKRSRC
For B1, which NK activity index (NK cell; [8]) is on record?
Its NK activity index is 20.9 ± 3.3%.

What about the Phagocytosis index (mononuclear phagocyte [3]; [8]) of the same molecule?
The Phagocytosis index was 5.45 ± 0.71.

And the phagocytotic index (mononuclear phagocyte [1]; [6])?
The phagocytotic index was 6.4 ± 0.9.

And the phagocytotic index (mononuclear phagocyte [1]; [4])?
Its phagocytotic index is 6.4 ± 0.9.

And the phagocytotic index (mononuclear phagocyte [1]; [7])?
The phagocytotic index was 6.4 ± 0.9.

And the phagocytotic index (mononuclear phagocyte [1]; [5])?
The phagocytotic index was 6.4 ± 0.9.

What about the “activity of T lymphocyte” value (T lymphocyte) of the same molecule?
The value was 139 ± 16 IU and 125 ± 18 IU and 124 ± 16 IU.

And the Survival days [2, 8]?
Its Survival days is 27.8 ± 7.5 days.

And the Survival index [2, 8]?
Its Survival index is 6.1%.
